Measured values: patent EP1500700B1, “Use of a pectic acid lyase in a detergent” (KAO CORPORATION, priority 1997, dated 1998)

Tests used:
[1] = tested on: pectic acid lyases from Example 3 and Example 8; type: biochemical, Bacillus sp. KSM-P15; details: pH 7.5
[2] = tested on: wild-type and reconbinant enzyme; assay: Effect of the arginine-modifier 2,3-butanedione on residual activity; type: biochemical, Bacillus sp. KSM-P15; details: 0.1 M borate buffer pH 9.5, 30°C, 30 minutes; both enzymes
[3] = tested on: pectic acid lyase from Bacillus sp. KSM-P15, wild type (BPAL, Example 3), Sequence No. 1; assay: Effect of H2O2 on residual pectic acid lyase activity; type: biochemical; details: in the presence of 3% H2O2; 50 mM Tris-HCl buffer (pH 7.5), 30°C, 30 minutes
Experimental: (§1) 0.5 M glycine-NaOH buffer (pH 10.5) (0.3 ml), 6 mM calcium chloride (0.3 ml), and deionized water (1.7 ml) were placed in a test tube, which was then incubated at 30°C for 5 minutes. An appropriately diluted enzyme solution [0.1 ml, diluted with 50 mM Tris-HCl buffer containing 1 mM calcium chloride (pH 7.5)] was added to the test tube, which was further incubated at constant temperature for 5 minutes. An aqueous solution of polygalacturonic acid (0.6 ml, 1% (w/v), product of ICN Biomedicals Co., Lot 14482, pH 6.8 adjusted with sodium hydroxide solution) was added to the enzyme solution to initiate reaction, and the mixture was incubated at 30°C for 10 minutes. The reaction was terminated by the addition of 3 ml of 50 mM HCl. The quantity of unsaturated Oligogalacturonic acid formed in the reaction was determined through measuring the absorbance at 235 nm and calculating with the molar extinction coefficient of unsaturated digalacturonide (4600 M^-1 cm^-1, Hasegawa & Nagel, J. Food Sci., 31, 838-845, 1966). A test blank was prepared as follows: 50 mM hydrochloric acid (3 ml) was added to a reaction mixture treated without being incorporated with the enzyme solution, and subsequently an enzyme solution (0.1 ml) was added thereto. […]

[4] = tested on: recombinant pectic acid lyase of Bacillus sp. KSM-P15 (rPAL, Example 8), Sequence No. 1; assay: as above; type: biochemical; details: in the presence of 3% H2O2; 50 mM Tris-HCl buffer (pH 7.5), 30°C, 30 minutes
Experimental: as §1

Row | Molecule | inhibition (in words) [1] | further results
1 | O[C@H](CS)[C@H](O)CS (racemic) [dithiothreitol] | slightly inhibited or did not completely inhibit the enzymes | 
2 | CC(=O)C(C)=O [2,3-butanedione] |  | inhibition (residual activity) [2]: ≥ 40%
3 | O=C(O)c1cc(SSc2ccc([N+](=O)[O-])c(C(=O)O)c2)ccc1[N+](=O)[O-] [5,5'-dithiobis(2-nitrobenzoic acid)] | slightly inhibited or did not completely inhibit the enzymes | 
4 | O=C1CCC(=O)N1Br [N-bromosuccinimide] |  | percentage inhibition [1]: 30-40%
5 | CCN1C(=O)C=CC1=O [N-ethylmaleimide] | slightly inhibited or did not completely inhibit the enzymes | 
6 | CCOC(=O)OC(=O)OCC [diethyl pyrocarbonate] | slightly inhibited or did not completely inhibit the enzymes | 
7 | O=CC=O [glyoxal] | slightly inhibited or did not completely inhibit the enzymes | 
8 | O=C(O)CI [iodoacetic acid] | slightly inhibited or did not completely inhibit the enzymes | 
9 | O=C(O)c1cc[c]([Hg][Cl])cc1 [p-Chloromercuribenzoic acid] | slightly inhibited or did not completely inhibit the enzymes | 
10 | H2O2 |  | inactivation (residual activity, in words) [3]: not be inactivated; inactivation (residual activity, in words) [4]: not be inactivated
